{"source": "paper PMC8262325", "about": "“Phosphatase inhibition by LB-100 enhances BMN-111 stimulation of bone growth” (JCI Insight, 2021)", "key": {"NPR2 guanylyl cyclase [1]": {"system": "NPR2 guanylyl cyclase", "assay": "cGMP production in chondrocytes of intact tibia growth plates (cGi500 FRET sensor imaging)", "assay_type": "cell-based, mouse", "details": "for cGMP increase (CFP/YFP emission ratio from cGi500) on perfusion of agonist: no FGF", "description": "cGMP production in chondrocytes within intact growth plates was measured using tibias dissected from newborn mice (0- to 1-day-old mice) that globally expressed 1 or 2 copies of the cGi500 FRET sensor, as previously described ([27]). Tibias were dissected and cultured overnight on Millicell organotypic membranes (PICMORG50; MilliporeSigma) in BGJb medium (Thermo Fisher Scientific, catalog 12591-038) with 0.1% BSA (MP Biomedicals, catalog 103700), 100 units/mL of penicillin, and 100 μg/mL of streptomycin (Thermo Fisher Scientific, 15140-122). In preparation for imaging, each tibia was slit to remove the tissue overlying the growth plate. Where indicated, the tibia was incubated in LB-100, cantharidin, or control medium, followed by addition of FGF18 (0.5 μg/mL + 1 μg/mL heparin) or control medium containing heparin only. The tibia was then placed in a perfusion slide (ibidi USA, catalog 80186, special order with no adhesive), and the growth plate was imaged on the stage of a confocal microscope, as previously described ([27])."}, "PPP5C": {"system": "PPP5C", "design": "method as in PMID 30679389", "details": "reported previously, read-out: Phosphatase IC50 mean ± SE, PPP5C, cited from earlier work"}, "Fgfr3^Y367C/+ femurs": {"system": "Fgfr3^Y367C/+ femurs", "assay": "Ex vivo culture of fetal femurs, growth in length and area", "design": "species or system mouse", "details": "E16.5 Fgfr3^Y367C/+ femurs, 6-day culture; LB-100 10 μM, BMN-111 0.1 μM", "description": "Femurs from E16.5 embryos were cultured ex vivo, as described previously ([32], [47]). The left femur was cultured in the presence of LB-100 (10 μM), BMN-111 (0.1 μM), or LB-100 (10 μM) + BMN-111 (0.1 μM) and was compared with the vehicle-treated right femur. The bone’s length was measured on day 0 (D0) and D6. Images were captured with an Olympus SZX12 stereo microscope and quantified using cellSens software (Olympus). The results were expressed as the increase in femur length or area (D6 – D0) in the presence or absence of LB-100, BMN-111, or LB-100 + BMN-111. Bone length and area were measured as shown in Supplemental Figure 5. To generate the graphs shown in Figure 3, the length or 2-dimensional area on D0 was subtracted from the length or area on D6 to calculate the amount of growth. These measurements of growth in drug-treated bones were divided by the mean values from corresponding measurements of control (vehicle-treated) bones; the graphs show the ratio of treated/control growth."}, "PPP2C": {"system": "PPP2C", "design": "method as in PMID 30679389", "details": "reported previously, read-out: Phosphatase IC50 mean ± SE, PPP2C, cited from earlier work"}, "[2]": {"target": "T1, recombinant PPP1CA (PPP1C) (Homo sapiens, UniProt P62136)", "T1 construct": "made in house; host or cells: E. coli BL-21", "assay": "Phosphatase activity inhibition assay (DiFMUP or [32P]-phosphohistone substrate)", "assay_type": "biochemical", "description": "The coding sequence of human PPP1CA was expressed as a maltose binding protein fusion in a BL-21 strain of E. coli and purified as previously described ([55]). Phosphohistone phosphatase assays were performed as previously described ([55], [56]). Briefly, LB-100, at the indicated concentrations, or vehicle control (H2O) was added to enzyme/buffer aliquots about 10 minutes prior to starting assays by the addition of [^32P]-phosphohistone substrate (to a final assay concentration of 300 nM incorporated phosphate). [^32P]-phosphohistone was prepared by the phosphorylation of bovine brain histone (MilliporeSigma, type-2AS) with cAMP-dependent protein kinase (PKA) in the presence of cAMP and [^32P]-ATP using established methods ([56], [57]). Phosphatase activity was measured by the quantitation of [^32P]-labeled orthophosphate liberated from the substrate using established protocols ([57]). 6,8-Difluoro-4-methylumbelliferyl phosphate–based (DiFMUP-based) inhibition assays were conducted as described ([56], [57]), in a 96-well format using DiFMUP (Invitrogen) (100 μM final assay concentration). IC50 values were calculated from a 10-point concentration/dose response curve by a 4-parameter logistic fit of the data, using 3–8 replicates per concentration."}, "NPR2": {"system": "NPR2", "assay": "NPR2 phosphorylation in primary rib chondrocyte cultures (Phos-tag gel electrophoresis, Western blot)", "assay_type": "cell-based, mouse", "details": "for NPR2 dephosphorylation in response to FGF: then FGF18 0.5 μg/mL 10 minutes", "description": "Rib cages were dissected from newborn mice (0–2 days old) and trimmed to remove the skin, spinal cord, and soft tissue around the sternum and ribs. Nonchondrocyte tissue was digested away by incubating the rib cages in 2 mg/mL pronase (Roche, catalog 10165921001) in PBS for 1 hour in a shaking water bath at 37°C and was then incubated in 3 mg/mL collagenase D (Roche, catalog 11088866001) in medium for 1 hour. After washing, the rib cages were transferred to a dish with fresh collagenase D and incubated for 5–6 hours, with trituration at 2 hours, to release the chondrocytes. The isolated cells were passed through a 40 μm nylon cell strainer (Corning, catalog 431750), resuspended in DMEM/F12 medium (Thermo Fisher Scientific, catalog 11320-033) with 10% FBS (Thermo Fisher Scientific, catalog 10082-139), 100 units/mL of penicillin, and 100 μg/mL of streptomycin. The cells were plated in 35 mm tissue culture dishes, at a density corresponding to 1 newborn mouse per dish, and cultured for 3 days, at which point the cells were approximately 75%–90% confluent. They were then washed with PBS and incubated in serum-free medium for 18 hours. The cells were then incubated in LB-100 (10 μM), or control medium, followed by addition of FGF18 (0.5 μg/mL + 1 μg/mL heparin) or control medium containing heparin only.\nAt end of the incubation period, dishes were washed in PBS, and cells were lysed in 250 μL of 1% SDS containing 10 mM sodium fluoride, 1 μM microcystin-LR (Cayman Chemical, catalog 10007188), and protease inhibitor cocktail (Roche, catalog 04 693 159 001). Protein content was determined by a BCA assay (Pierce, catalog 23225). The protein yield per newborn mouse was approximately 200–300 μg.\nProteins were separated in a Phos-tag–containing gel, as previously described ([58]), except that chondrocyte lysates (30 μg protein) were used without immunoprecipitation. Phos-tag and protein size markers were obtained from Fujifilm Wako Pure Chemical (catalogs AAL-107 and 230-02461, respectively). For these studies, we used mice with HA-tagged NPR2 ([43]), and blots were probed with an antibody against the HA tag (Cell Signaling Technology, catalog 2367, 1:1000 dilution). The specificity of this antibody is validated in Supplemental Figure 3. Note that molecular weight markers are only approximate for Phos-tag gels."}, "NPR2 guanylyl cyclase [3]": {"system": "NPR2 guanylyl cyclase", "design": "method as in PMID 29199951", "details": "100 μM; cited from earlier work"}, "[4]": {"system": "growth plate chondrocytes of Fgfr3^Y367C/+ femurs", "assay": "Histology of growth plates of ex vivo cultured femurs (HES, COLX immunostaining)", "design": "species or system mouse", "details": "6-day culture, LB-100 10 μM, BMN-111 0.1 μM", "from_the_text": "After a 6-day culture period, fetal femur (E16.5) explants were fixed in 4% paraformaldehyde, decalcified with EDTA (0.4M), and embedded in paraffin. Serial 5 μm sections were stained with hematoxylin‑eosin‑safran (HES) reagent, using standard protocols. For immunohistochemical assessment, sections were labeled with the following antibodies and a Dako Envision Kit: anti-COLX (BIOCYC, catalog N.2031501005; 1:50 dilution), and anti–phosphorylated ERK1‑2 ([…]) (Cell Signaling Technology, catalog 4370; 1:100 dilution). Images were captured with an Olympus PD70-IX2-UCB microscope and quantified using cellSens software.\nMean areas of individual hypertrophic chondrocytes were measured from COLX-labeled sections, within a 166 μm wide × 76 μm high box positioned 50 μm from mineralization front (Supplemental Figure 6). The measurements were made manually using Fiji software and the freehand selection tool. […] We measured the total area occupied by chondrocytes within the whole growth plate and the area occupied by COLX^+ chondrocytes. The area for proliferating chondrocytes was calculated by subtracting the COLX^+ area from the whole growth plate area."}, "children with ACH": {"system": "children with ACH", "design": "method as in PMID 31269546, PMID 32891212", "details": "children 5–14 years of age with ACH, up to 42 months, phase 2 and 3 data; cited from earlier work"}, "Fgfr3^Y367C/+ mice": {"system": "Fgfr3^Y367C/+ mice", "design": "method as in PMID 23200862", "details": "cited from earlier work"}, "[5]": {"details": "substrate [32P]-labeled phosphohistone"}}, "note": "Read-outs that look alike come from different tables or passages of the source. Bridges are numbered along the chain shown (N, C = ends)."}
{"compound": "CCN(CC)/[N+]([O-])=N/O.CCNCC", "note": "[DEA/NO]", "values": [{"measurement": "cGMP increase (CFP/YFP emission ratio from cGi500) on perfusion of agonist", "setting": "NPR2 guanylyl cyclase [1]; 10 μM perfused across growth plate of newborn mouse tibia", "value": "did not increase cGMP"}]}
{"compound": "CN1CCN(C(=O)C2C3CCC(O3)C2C(=O)O)CC1", "note": "(stereo not shown) [LB-100, 3-[4-methylpiperazine-1-carbonyl]-7-oxabicyclo[2.2.1]heptane-2-carboxylic acid]", "values": [{"measurement": "IC50", "setting": "PPP5C; substrate DiFMUP", "value": "1820 ± 93", "unit": "nM"}, {"measurement": "IC50", "setting": "PPP5C; [5]", "value": "4900 ± 290", "unit": "nM"}, {"measurement": "Increase in bone length, ratio treated/vehicle-treated control", "setting": "Fgfr3^Y367C/+ femurs", "value": 1.30}, {"measurement": "Increase of total bone and cartilage area, growth ratio treated/control", "setting": "Fgfr3^Y367C/+ femurs", "value": 1.40}, {"measurement": "IC50", "setting": "PPP2C; substrate DiFMUP", "value": "390 ± 13", "unit": "nM"}, {"measurement": "IC50", "setting": "PPP2C; [5]", "value": "640 ± 37", "unit": "nM"}, {"measurement": "IC50", "setting": "[2]; 2 established assays with different substrates, read-out: IC50 for inhibition of PPP1C", "value": "< 2000", "unit": "nM"}, {"measurement": "IC50", "setting": "[2]; substrate DiFMUP, read-out: Phosphatase IC50 mean ± SE, PPP1C", "value": "1800 ± 21", "unit": "nM"}, {"measurement": "IC50", "setting": "[2]; substrate [32P]-labeled phosphohistone, read-out: Phosphatase IC50 mean ± SE, PPP1C", "value": "1680 ± 130", "unit": "nM"}, {"measurement": "NPR2 dephosphorylation in response to FGF", "setting": "NPR2; 10 μM preincubation 1 hour with BMN-111 0.1 μM present", "value": "counteracts the FGF-induced dephosphorylation"}, {"measurement": "NPR2 dephosphorylation in response to FGF", "setting": "NPR2; 10 μM preincubation 1 hour", "value": "only partial"}, {"measurement": "CNP-induced cGMP increase in FGF-treated tibias", "setting": "NPR2 guanylyl cyclase [1]; 1 μM preincubation 60 minutes before FGF18 (80 minutes)", "value": "no effect"}, {"measurement": "Effectiveness in counteracting inactivation of NPR2 by FGF, compared with cantharidin", "setting": "NPR2 guanylyl cyclase [1]; 5 μM LB-100 equivalent to 10 μM cantharidin", "value": "more effective than cantharidin"}, {"measurement": "CNP-induced cGMP increase in FGF-treated tibias", "setting": "NPR2 guanylyl cyclase [1]; 5 μM preincubation 60 minutes before FGF18 (80 minutes)", "value": "enhanced"}, {"measurement": "CNP-induced cGMP increase in FGF-treated tibias", "setting": "NPR2 guanylyl cyclase [1]; 10 μM preincubation 60 minutes before FGF18 (80 minutes)", "value": "enhanced"}, {"measurement": "Chondrocyte morphology in the live growth plate", "setting": "NPR2 guanylyl cyclase [1]; 10 μM, 2-hour incubation", "value": "no visible change in chondrocyte morphology"}]}
{"compound": "C[C@@]12C(=O)OC(=O)[C@]1(C)[C@H]1CC[C@@H]2O1", "note": "[cantharidin, Cantharidin]", "values": [{"measurement": "Effect on inactivation of NPR2 by FGF in growth plate chondrocytes", "setting": "NPR2 guanylyl cyclase [3]", "value": "inhibits the inactivation of NPR2"}]}
{"compound": "(Cyc[23,39])H2N-PGQEHPNARKYKGANKKGLSKGCFGLKLDRIGSMSGLGC-OH (H-PGQEHPNARKYKGANKKGLSKGCFGLKLDRIGSMSGLGC-OH; disulfide 23-39) [BMN-111, protease-resistant CNP analog, NPR2 agonist]", "values": [{"measurement": "Increase in bone length, ratio treated/vehicle-treated control", "setting": "Fgfr3^Y367C/+ femurs", "value": 1.78}, {"measurement": "Increase of total bone and cartilage area, growth ratio treated/control", "setting": "Fgfr3^Y367C/+ femurs", "value": 1.51}, {"measurement": "Size of Fgfr3^Y367C/+ hypertrophic chondrocytes", "setting": "[4]; proximal growth plate", "value": "increased the size"}, {"measurement": "Increase of total proliferative growth plate area of the femur over vehicle", "setting": "[4]; proximal plus distal growth plates", "value": 20, "unit": "%"}, {"measurement": "Annualized growth velocity", "setting": "children with ACH", "value": "sustained increase in annualized growth velocity"}, {"measurement": "Bone growth in mouse model of ACH", "setting": "Fgfr3^Y367C/+ mice", "value": "increases bone growth"}, {"measurement": "NPR2 phosphorylation", "setting": "NPR2; 0.1 μM for 1 hour, independently of FGF treatment", "value": "some reduction in NPR2 phosphorylation"}]}
{"compound": "ANP: A-type natriuretic peptide, which activates the NPR1 guanylyl cyclase", "values": [{"measurement": "cGMP increase (CFP/YFP emission ratio from cGi500) on perfusion of agonist", "setting": "NPR2 guanylyl cyclase [1]; 0.1 μM agonist perfused across growth plate of newborn mouse tibia", "value": "did not increase cGMP"}]}
{"compound": "FGF18: fibroblast growth factor 18 used to activate FGF receptor", "values": [{"measurement": "NPR2 phosphorylation", "setting": "NPR2; FGF18 0.5 μg/mL for 10 minutes", "value": "decrease in NPR2 phosphorylation"}, {"measurement": "Effect on cGMP increase in response to CNP perfusion", "setting": "NPR2 guanylyl cyclase [1]; pretreatment 0.5 μg/mL FGF18 + 1 μg/mL heparin for 80 minutes, 0.1 μM CNP", "value": "suppressed the cGMP increase"}]}
